Data published in US8710089B2, “Triazole derivatives as ghrelin analogue ligands of growth hormone secretagogue receptors” (Zentaris GmbH, priority 2005, dated 2014).

Key:
[1] = target: T1, human GHS-R 1a (Homo sapiens, UniProt Q92847); assay: GHS-R 1a receptor-ligand binding assay (membrane preparations from transfected LLC PK-1 cells); details: displacement of 125I-His9-ghrelin (60 pM); membranes of LLC PK-1 cells transfected with human GHS-R 1a; mean of at least two independent experiments in triplicates
T1 construct: expressed in transfected cells; host or cells: LLC PK-1 porcine renal epithelial cells (ECACC No. 86121112), isolated plasma membranes
T1 sequence (Q92847 whole entry): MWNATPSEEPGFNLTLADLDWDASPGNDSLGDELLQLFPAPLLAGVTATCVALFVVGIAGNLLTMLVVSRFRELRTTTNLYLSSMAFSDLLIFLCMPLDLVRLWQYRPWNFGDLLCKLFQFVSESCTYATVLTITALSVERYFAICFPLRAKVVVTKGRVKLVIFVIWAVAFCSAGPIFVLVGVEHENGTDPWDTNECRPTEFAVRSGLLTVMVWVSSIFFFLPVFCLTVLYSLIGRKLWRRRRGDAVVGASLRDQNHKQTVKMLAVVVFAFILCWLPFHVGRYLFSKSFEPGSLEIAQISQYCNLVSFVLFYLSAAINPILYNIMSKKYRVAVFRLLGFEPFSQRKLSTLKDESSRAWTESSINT
Summary of the method: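 Membranes from LLC PK-1 cells expressing human GHS-R 1a incubated 60 min at 25 °C in 50 mM Tris pH 7.3, 5 mM MgCl2, 2.5 mM EDTA, bacitracin with 60 pM 125I-ghrelin and competitor; nonspecific binding with 10^-6 M ghrelin; filtration read-out.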

[2] = test system: GH concentration in the plasma of male rat pups; assay: In vivo GH concentration in the plasma of male rat pups; set-up: species or system rat (Sprague-Dawley); details: rat pup plasma, killed 15 min later
Procedure: IV) Assaying In Vivo GH Concentration in the Plasma of Male Rat Pups
GH plasma concentrations of male rat pubs were assayed to characterize the modulation effect (antagonistic or agonistic) of the compounds of the invention being GHS receptor analogue ligands.
In principle, assaying in vivo GH concentration in rat plasma was performed according to Torsello et al. (Eur. J. Pharmacol. 1998, 360: 123-129).
Male Sprague-Dawley rat pups (Charles River, Calco, Italy) were separated on postnatal day seven from their mothers and randomly redistributed to the dams, so that each one nurtured ten to twelve pups. On postnatal day ten, the pups were again separated from their mothers.
The compounds to be tested were dissolved in solvent [DMSO (0.4% of total volume), distilled water (4% of total volume), brought to the final volume with physiological saline].
One hour after separation from their mothers, the pups were given isovolumetric amounts of the compounds to be tested (160 μg/kg body weight s.c.) at time −10 min and then administered with hexarelin (80 μg/kg body weight s.c.) or solvent at time 0 min before being killed 15 min later by decapitation. Trunk blood was collected, immediately centrifuged and plasma samples were stored at −20° C. until assayed for the determination of GH concentrations.
Plasma GH concentrations were measured using a rat growth hormone enzyme immunoassay kit (SPIbio, France, cat. no. 589601) according to the manufacturer's instructions. Values are expressed in terms of NIDDK rat-GH-RP2 standard (potency 2 IU/mg) as ng/mL of plasma
The limit of detection calculated as the concentration producing 15% displacement of initial tracer was 0.5 ng/ml; intra-assay and inter-assay coefficient of variation are 4% (n=24) and 14% (n=9).
In the following table 3 results obtained for selected compounds of the invention are presented.

[3] = test system: young-adult male Sprague-Dawley rats; assay: Feeding behavior (food intake) of young-adult male rats; assay type: in vivo, rat (Sprague-Dawley)
Summary of the method: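 Compounds (160 μg/kg) and/or hexarelin (80 μg/kg), the latter used to stimulate feeding, given s.c. around 10.00–11.00 a.m. to trained rats (200–250 g) with free access to chow and water. Remaining food weighed hourly for 6 h; intake normalized to body weight as g per 100 g.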

[4] = target: T2, Motilin-Receptor 1a (MTL-R1a) (Homo sapiens, UniProt O43193); assay: Motilin receptor-ligand binding assay (human recombinant HEK-293 cells); details: 0.1 nM [125I] Motilin, read-out: MTL-R 1a IC50
T2 construct: expressed in transfected cells; host or cells: HEK-293 cells
T2 sequence (O43193 whole entry): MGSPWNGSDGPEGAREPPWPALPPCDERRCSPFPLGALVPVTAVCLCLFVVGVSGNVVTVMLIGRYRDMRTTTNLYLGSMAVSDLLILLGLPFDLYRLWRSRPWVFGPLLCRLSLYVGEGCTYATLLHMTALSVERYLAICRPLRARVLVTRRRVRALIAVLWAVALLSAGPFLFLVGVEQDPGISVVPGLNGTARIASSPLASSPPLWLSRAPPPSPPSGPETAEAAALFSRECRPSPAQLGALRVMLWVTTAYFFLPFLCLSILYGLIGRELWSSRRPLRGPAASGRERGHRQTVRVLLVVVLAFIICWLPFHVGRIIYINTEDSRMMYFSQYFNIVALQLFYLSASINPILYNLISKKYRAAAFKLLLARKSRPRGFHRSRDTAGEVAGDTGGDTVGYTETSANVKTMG
Procedure: VI) Motilin Receptor-Ligand Binding Assay (Using Human Recombinant HEK-293 Cells)
Motilin Receptor binding/affinity studies were performed as described by Feighner S D et al. (Science 1999, 284: 2184-2188). The assays were run under the following conditions:
Compounds of the invention were tested in concentrations comprising 0.01 μM, 0.1 μM, 1 μM and 10 μM.
IC50 values were determined by a non-linear, least square regression analysis using Data Analysis Toolbox (MDL Information Systems, USA).
In the following table 5 results obtained for selected compounds of the invention are presented.

[5] = test system: rats with adjuvant induced arthritis; assay: Anti-cachectic effects in an adjuvant-induced arthritis model system; assay type: in vivo, rat; details: arthritic rats, 0.1 μg/kg/day s.c.
Description: VII) Study of Anti-Cachectic Effects in an Adjuvant-Induced Arthritis Model System
The effectiveness of compounds of the invention in the treatment of cachexia was investigated according to Ibanez de Caceres I et al. (J Endocrinol. 2000, 165(3): 537-544) using a cachexia model system (Roubenoff R et al., Arthritis Rheum. 1997, 40(3): 534-539).

[6] = compound 160 μg/kg s.c. + hexarelin 80 μg/kg s.c.
[7] = compound alone, 160 μg/kg body weight s.c.

COc1ccc(Cn2c(CCc3ccccc3)nnc2[C@@H](Cc2c[nH]c3ccccc23)NC(=O)C2CCNCC2)cc1 [compound 44, (R)—N-(1-(4-(4-methoxybenzyl)-5-phenethyl-4H-1,2,4-triazol-3-yl)-2-(1H-indol-3-yl)ethyl)piperidine-4-carboxamide]
IC50 [1]: 0.6 nM
GH concentration ([2]; compound 160 μg/kg s.c. at -10 min + hexarelin 80 μg/kg s.c. at 0 min): 100.52 ± 12.112 ng/mL
GH concentration ([2]; compound alone 160 μg/kg body weight s.c. at -10 min, solvent at 0 min): 87.520 ± 15.066 ng/mL
Cumulative food intake (after 2 hours) [3, 6]: 1.2667 ± 0.1319 g food/100 g body weight
Cumulative food intake (after 6 hours) [3, 6]: 1.4033 ± 0.1177 g food/100 g body weight
Cumulative food intake (after 2 hours) [3, 7]: 0.43 ± 0.0721 g food/100 g body weight
Cumulative food intake (after 6 hours) [3, 7]: 0.7075 ± 0.1471 g food/100 g body weight
IC50 [4]: 1610 nM
Body weight change, Day 3 ([5]; Day 3, mean of 6 animals): −5.32 gram
Body weight change, Day 6 ([5]; Day 6, mean of 6 animals): 2.98 gram
Body weight change, Day 10 ([5]; Day 10, mean of 6 animals): 14.92 gram
Body weight change, Day 13 ([5]; Day 13, mean of 6 animals): 19.08 gram
Body weight change, Day 15 ([5]; Day 15, mean of 6 animals): 7.05 gram
Body weight change, Day 17 ([5]; Day 17, mean of 6 animals): 1.47 gram
